According to patent US8329693B2, “Method for the prevention of thromboembolic disorders” (Orion Corporation, priority 2004, dated 2012):
“Also recorded” adds a separate entry of the source.

What was measured:
[1] = tested on: Dahl SS rats on high-salt diet; test: In vivo T2-weighted MRI of brain lesions, Dahl salt-sensitive rat stroke model; details: for share of animals with T2-lesion volume 0 mm^3 / share of animals with T2-lesion volume 1-50 mm^3 / share of animals with T2-lesion volume 51-100 mm^3 / share of animals with T2-lesion volume >200 mm^3: in vivo MRI
Procedure: Effect of levosimendan on the incidence of cerebral strokes in Dahl salt-sensitive rat stroke model was studied using Magnetic Resonance Imaging (MRI) and behavioural tests (Neuroscore and Functional Observational Battery (FOB)).
Dahl SS rats were divided into three treatment groups: High-Salt diet+vehicle (n=20), High-Salt diet+Levosimendan 1 mg/kg/day (n=20), and Normal-Salt diet control (n=4). High salt diet contained 7% of NaCl in commercial low salt diet. Feeding with the high-salt diet was started at the age of 6 weeks and continued 7 weeks until the end of the study. Levosimendan was administered via drinking water (2 mg/l of levosimendan in drinking water). The administration was started at the same time as the high-salt diet and continued until the end of the study. The consumption of drinking water and food as well as the body weight and general health of the animals were monitored. MRI was performed once-a-week during the weeks 2-8. FOB and 7-point Neuroscore testing were performed once-a-week during the weeks 1-3 and twice-a-week during weeks the 4-8.
Diffusion and T2-weighted MRI using Varian Inova console interfaced to a 4.7 T horizontal magnet (Magnex Scientific Ltd.) was performed once-a-week on halothane-anesthetized rats. T2-weighted imaging and quantitative diffusion imaging were used to determine lesion size and to characterize plausible ischaemic lesions in Dahl SS rats. Typical lesions were heterogeneous and consisted of several different regions with different MRI characteristics. Hyperintensity in T2-weighted imaging was found in practically all animals with detectable abnormalities. This can be interpreted as oedematous tissue, which is typical for ischaemic tissue and is, in general, detectable starting at ˜12-24 h after occlusion of the feeding vessel. […] At the high magnetic field (4.7 T) used in this study, any ferromagnetic substance causes local disruption in magnetic field homogeneity which destroys the signal in T2-weighted imaging. This is a characteristic MRI feature for hemorrhage as haemoglobin in blood contains Fe. Thus almost all lesions detected in this study can be characterized to be associated with hemorrhage.

Kininogen = test: Effect on kininogen expression in rat heart (2-DE gels, silver staining, MALDI-TOF); assay type: in vivo, Rattus novergicus; details: levosimendan orally 20 mg/l in tab water for eight days
Procedure: Rats were given levosimendan orally 20 mg/l in tab water and controls only tab water for eight days. Hearts were frozen in liquid nitrogen and stored at −80° C. The heart tissues were lyophilized on ice over night and incubated in lysis buffer; 9 M urea, 20 mM Tris-HCl pH 7.4, 50 mM KCl, 3 mM EDTA pH 7.5, 0.5% IPG buffer 3-10 NL, 5 mM PMSF, 1% DTT and Benzoase 100 Units for 10 min at room temperature. The protein solution was then sonicated 2×15 s and centrifuged at 14000 rpm for 5 min. The supernatants were collected and the protein amount measured based on the protein assay kit from BioRad. 40 μg protein solution was diluted in 350 μl of rehydration buffer; 7 M urea, 2 M thiourea, 2 mM TBP, 0.5% IPG buffer 3-10 NL, 4% CHAPS and 0.2% BFB, incubated for 30 min at room temperature and centrifuged for 5 min at 14000 rpm. […]
The focused strips were equilibrated in the following buffer: 6 M urea, 50 mM Tris-HCl, pH 8.8, 2% SDS, 30% glycerol, 2% DTT, 2.5% iodoacetamide and 0.2% BFB 2×10 min at room temperature. […] The silver stained gels were analyzed by PD-QUEST(6.2) 2-DE software (BIO-RAD). […]
All samples were prepared by reversed phase pipette tips C18 (ZipTip, Millipore). […] The samples were analyzed in a TOF mass spectrometer (Voyager-DE PRO). […] The masses of the obtained peptides were analysed by the MS-fit program on the Expasy Molecular Biology server PeptIdent.

salt sensitive rat model = test: Stroke in salt sensitive rat model (summary statements); assay type: in vivo; details: preventative treatment

## CC1CC(=O)NN=C1c1ccc(NN=C(C#N)C#N)cc1 (single isomer, unassigned; (-)) [levosimendan, (−)-enantiomer of [[4-(1,4,5,6-tetrahydro-4-methyl-6-oxo-3-pyridazinyl)phenyl]hydrazono]propanedinitrile]
[1]; 6th week of the study, more than 50% of vehicle treated animals had changes
  noticeable T2-weighted MRI changes: no changes were observed
[1]; at the last MRI measurement, 85% of vehicle treated animals
  animals with detectable T2-weighted MRI changes: 10%
[1]; week 2, lesion volume class 0 mm^3, levosimendan 1 mg/kg/day in drinking water
  share of animals with T2-lesion volume 0 mm^3: 95%
[1]; week 2, lesion volume class 1-50 mm^3, levosimendan 1 mg/kg/day in drinking water
  share of animals with T2-lesion volume 1-50 mm^3: 5%
[1]; week 2, lesion volume class 51-100 mm^3, levosimendan 1 mg/kg/day in drinking water
  share of animals with T2-lesion volume 51-100 mm^3: 0%
[1]; week 2, lesion volume class >200 mm^3, levosimendan 1 mg/kg/day in drinking water
  share of animals with T2-lesion volume >200 mm^3: 0%
[1]; week 3, lesion volume class 0 mm^3, levosimendan 1 mg/kg/day in drinking water
  share of animals with T2-lesion volume 0 mm^3: 100%
[1]; week 3, lesion volume class 1-50 mm^3, levosimendan 1 mg/kg/day in drinking water
  share of animals with T2-lesion volume 1-50 mm^3: 0%
[1]; week 3, lesion volume class 51-100 mm^3, levosimendan 1 mg/kg/day in drinking water
  share of animals with T2-lesion volume 51-100 mm^3: 0%
[1]; week 3, lesion volume class >200 mm^3, levosimendan 1 mg/kg/day in drinking water
  share of animals with T2-lesion volume >200 mm^3: 0%
[1]; week 4, lesion volume class 0 mm^3, levosimendan 1 mg/kg/day in drinking water
  share of animals with T2-lesion volume 0 mm^3: 95%
[1]; week 4, lesion volume class 1-50 mm^3, levosimendan 1 mg/kg/day in drinking water
  share of animals with T2-lesion volume 1-50 mm^3: 5%
[1]; week 4, lesion volume class 51-100 mm^3, levosimendan 1 mg/kg/day in drinking water
  share of animals with T2-lesion volume 51-100 mm^3: 0%
[1]; week 4, lesion volume class >200 mm^3, levosimendan 1 mg/kg/day in drinking water
  share of animals with T2-lesion volume >200 mm^3: 0%
[1]; week 5, lesion volume class 0 mm^3, levosimendan 1 mg/kg/day in drinking water
  share of animals with T2-lesion volume 0 mm^3: 100%
[1]; week 5, lesion volume class 1-50 mm^3, levosimendan 1 mg/kg/day in drinking water
  share of animals with T2-lesion volume 1-50 mm^3: 0%
[1]; week 5, lesion volume class 51-100 mm^3, levosimendan 1 mg/kg/day in drinking water
  share of animals with T2-lesion volume 51-100 mm^3: 0%
[1]; week 5, lesion volume class >200 mm^3, levosimendan 1 mg/kg/day in drinking water
  share of animals with T2-lesion volume >200 mm^3: 0%
[1]; week 6, lesion volume class 0 mm^3, levosimendan 1 mg/kg/day in drinking water
  share of animals with T2-lesion volume 0 mm^3: 100%
[1]; week 6, lesion volume class 1-50 mm^3, levosimendan 1 mg/kg/day in drinking water
  share of animals with T2-lesion volume 1-50 mm^3: 0%
[1]; week 6, lesion volume class 51-100 mm^3, levosimendan 1 mg/kg/day in drinking water
  share of animals with T2-lesion volume 51-100 mm^3: 0%
[1]; week 6, lesion volume class >200 mm^3, levosimendan 1 mg/kg/day in drinking water
  share of animals with T2-lesion volume >200 mm^3: 0%
[1]; week 7, lesion volume class 0 mm^3, levosimendan 1 mg/kg/day in drinking water
  share of animals with T2-lesion volume 0 mm^3: 90%
[1]; week 7, lesion volume class 1-50 mm^3, levosimendan 1 mg/kg/day in drinking water
  share of animals with T2-lesion volume 1-50 mm^3: 0%
[1]; week 7, lesion volume class 51-100 mm^3, levosimendan 1 mg/kg/day in drinking water
  share of animals with T2-lesion volume 51-100 mm^3: 10%
[1]; week 7, lesion volume class >200 mm^3, levosimendan 1 mg/kg/day in drinking water
  share of animals with T2-lesion volume >200 mm^3: 0%
[1]; week 8, lesion volume class 0 mm^3, levosimendan 1 mg/kg/day in drinking water
  share of animals with T2-lesion volume 0 mm^3: 89%
[1]; week 8, lesion volume class 1-50 mm^3, levosimendan 1 mg/kg/day in drinking water
  share of animals with T2-lesion volume 1-50 mm^3: 5%
[1]; week 8, lesion volume class 51-100 mm^3, levosimendan 1 mg/kg/day in drinking water
  share of animals with T2-lesion volume 51-100 mm^3: 0%
[1]; week 8, lesion volume class >200 mm^3, levosimendan 1 mg/kg/day in drinking water
  share of animals with T2-lesion volume >200 mm^3: 5%
Kininogen
  kininogen protein expression in rat heart versus control: ten fold up-regulated
Salt sensitive rat model
  incidence and volume of brain lesions, behavioural disorders and mortality associated with stroke: reduces and/or postpones; also recorded: markedly reduce
